Results reported in patent US7981893B2, “Heteroaryl compounds, compositions thereof, and methods of treatment therewith” (Signal Pharmaceuticals, LLC, priority 2006, dated 2011).

Test system: not given
Assay: not given
Conditions: not given

SMILES | melting point [°C]
O=c1[nH]c2ncc(-c3ccc(O)cc3)nc2n1C1CCCCC1 [Compound 95, 1-Cyclohexyl-6-(4-hydroxyphenyl)-1H-imidazo[4,5-b]pyrazin-2(3H)-one] | 318 to 320
O=c1[nH]c2ncc(-c3ccnc(O)c3)nc2n1CC1CCCCC1 [Compound 154, 1-(Cyclohexylmethyl)-6-(2-hydroxypyridin-4-yl)-1H-imidazo[4,5-b]pyrazin-2(3H)-one] | 311 to 313
COCCn1c(=O)[nH]c2ncc(-c3ccc(O)cc3)nc21 [Compound 117, 6-(4-Hydroxyphenyl)-1-(2-methoxyethyl)-1H-imidazo[4,5-b]pyrazin-2(3H)-one] | 236 to 237
N#Cc1ccc(-c2cnc3[nH]c(=O)n(CC4CCCCC4)c3n2)cc1 [Compound 110, 4-(3-(Cyclohexylmethyl)-2-oxo-2,3-dihydro-1H-imidazo[4,5-b]pyrazin-5-yl)benzonitrile] | 255 to 257
O=c1[nH]c2ncc(-c3ccc(-c4ncc[nH]4)cc3)nc2n1CC1CCCCC1 [Compound 156, 6-(4-(1H-Imidazol-2-yl)phenyl)-1-(cyclohexylmethyl)-1H-imidazo[4,5-b]pyrazin-2(3H)-one] | 349 to 351
O=c1[nH]c2ncc(-c3ccc(-c4n[nH]c(CO)n4)cc3)nc2n1CC1CCOCC1 [Compound 196, 6-(4-(5-(Hydroxymethyl)-1H-1,2,4-triazol-3-yl)phenyl)-1-((tetrahydro-2H-pyran-4-yl)methyl)-1H-imidazo[4,5-b]pyrazin-2(3H)-one] | 258 to 260

Next, values leading:

melting point [°C] | SMILES
276 to 277 | O=c1[nH]c2ncc(-c3ccc(O)cc3)nc2n1CCC1CCOCC1 [Compound 120, 6-(4-Hydroxyphenyl)-1-(2-(tetrahydro-2H-pyran-4-yl)ethyl)-1H-imidazo[4,5-b]pyrazin-2(3H)-one]
226 to 228 | CC(C)(O)c1ccc(-c2cnc3[nH]c(=O)n(CC4CCCCC4)c3n2)cc1 [Compound 114, 1-(Cyclohexylmethyl)-6-(4-(2-hydroxypropan-2-yl)phenyl)-1H-imidazo[4,5-b]pyrazin-2(3H)-one]
343 to 346 | O=c1[nH]c2ncc(-c3ccc4[nH]ccc4c3)nc2n1CC1CCCCC1 [Compound 103, 1-(Cyclohexylmethyl)-6-(1H-indol-5-yl)-1H-imidazo[4,5-b]pyrazin-2(3H)-one]
311 to 313 | O=c1[nH]c2ncc(-c3ccc4[nH]ncc4c3)nc2n1CC1CCCCC1 [Compound 130, 1-(Cyclohexylmethyl)-6-(1H-indazol-5-yl)-1H-imidazo[4,5-b]pyrazin-2(3H)-one]

Molecular target: T1, PKCθ (Homo sapiens, UniProt Q04759)
T1 construct: purchased Invitrogen
Assay: PKCθ IMAP Assay
Type: biochemical
Conditions: IMAP fluorescence polarization screening assay, 35 μM ATP
Method: The following is an example of an assay that can be used to determine the PKCθ inhibitory activity of a test compound. Reagents are prepared as follows:
Assay Buffer: 50 mM HEPES (pH 7.6), 10 mM MgCl, 0.1 mM EDTA, 5 mM MBP, 0.01% Triton, 1 mM DTT, 0.05 mg/ml phosphatidyl serine, 0.05 mg/ml diacylglycerol.
The final concentration of PKCθ (Invitrogen) is 0.5 nM. The final concentration of substrate (FAM-AKRRRLSSLRA) (Molecular Devices) is 100 nM. The final concentration of ATP in the reaction is 35 μM. The final concentration of DMSO in the reaction is 2.5%.
Enzyme is kept in 5 μl aliquots and stored at −80° C. prior to use. Test compound is allowed to pre-incubate with enzyme for 45 minutes before the reactions is initiated.
The reaction mixture consists of: 5 μl of test compound in 10% DMSO, 5 μl of 400 nM substrate (FAM-AKRRRLSSLRA), 5 μl of […] PKCθ, and 5 μl of 140 μM ATP (ATP is added to the reaction mixture last to initiate the reaction) per well.
The reaction is allowed to proceed for 60 minutes and is terminated by adding 30 μl per well of 90% Progressive A buffer/10% Progressive B buffer and a 1:400 dilution of binding beeds (Molecular Devices).
The reaction is given a binding incubation time of at least 30 minutes prior to reading the fluorescence polarization signal on an Analyst reader (the following detector settings are used: fluorescein excitation-485 nm, fluorescein emission-530 nm, fluorescein dichroic-505 nm).

T1 sequence (Q04759 whole entry): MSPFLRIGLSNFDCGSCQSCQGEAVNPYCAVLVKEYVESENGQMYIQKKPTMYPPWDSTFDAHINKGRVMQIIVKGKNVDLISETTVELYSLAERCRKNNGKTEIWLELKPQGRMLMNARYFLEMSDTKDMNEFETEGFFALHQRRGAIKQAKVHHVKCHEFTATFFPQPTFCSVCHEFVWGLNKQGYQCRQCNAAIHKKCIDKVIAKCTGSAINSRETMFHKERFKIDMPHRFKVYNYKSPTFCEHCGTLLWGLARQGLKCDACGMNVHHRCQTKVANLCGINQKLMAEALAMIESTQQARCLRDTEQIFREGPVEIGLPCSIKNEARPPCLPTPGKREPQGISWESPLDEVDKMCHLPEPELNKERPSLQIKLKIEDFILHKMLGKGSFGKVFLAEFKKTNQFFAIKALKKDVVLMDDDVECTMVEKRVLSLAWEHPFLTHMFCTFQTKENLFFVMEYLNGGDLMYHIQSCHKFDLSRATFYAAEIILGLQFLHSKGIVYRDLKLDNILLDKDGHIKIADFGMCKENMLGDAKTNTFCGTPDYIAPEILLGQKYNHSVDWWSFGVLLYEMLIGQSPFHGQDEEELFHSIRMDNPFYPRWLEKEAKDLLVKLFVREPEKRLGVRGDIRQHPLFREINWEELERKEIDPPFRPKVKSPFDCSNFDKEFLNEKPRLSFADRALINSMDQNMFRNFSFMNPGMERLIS

SMILES | IC50 [µM]
CC[C@@H](c1ccccc1)n1c(=O)[nH]c2ncc(-c3cccc4ncccc34)nc21 [Compound 44, (S)-1-(1-phenylpropyl)-6-(quinolin-5-yl)-1H-imidazo[4,5-b]pyrazin-2(3H)-one] | > 30
C[C@@H](c1ccccc1)n1c(=O)[nH]c2nccnc21 [Compound 17, (S)-1-(1-phenylethyl)-1H-imidazo[4,5-b]pyrazin-2(3H)-one] | > 30
COc1ccc(C(C)C)cc1-c1cnc2[nH]c(=O)n([C@@H]3CCOC3)c2n1 [Compound 32, (R)-6-(5-isopropyl-2-methoxyphenyl)-1-(tetrahydrofuran-3-yl)-1H-imidazo[4,5-b]pyrazin-2(3H)-one] | 10.1 to 20
CC(c1ccccn1)n1c(=O)[nH]c2ncc(-c3cccc4ncccc34)nc21 (stereo not shown) [Compound 75, 1-(1-(pyridin-2-yl)ethyl)-6-(quinolin-5-yl)-1H-imidazo[4,5-b]pyrazin-2(3H)-one] | 10.1 to 20
COc1ccc(C(C)C)cc1-c1ccc2[nH]c(=O)n([C@H](CO)C(C)C)c2n1 [Compound 39, (S)-3-(1-hydroxy-3-methylbutan-2-yl)-5-(5-isopropyl-2-methoxyphenyl)-1H-imidazo[4,5-b]pyridin-2(3H)-one] | > 30
COc1ccc(C(C)C)cc1-c1cnc2[nH]c(=O)n(C(C)C)c2n1 [Compound 18, 1-isopropyl-6-(5-isopropyl-2-methoxyphenyl)-1H-imidazo[4,5-b]pyrazin-2(3H)-one] | 5.1 to 10
C[C@H](c1ccccc1)n1c(=O)n(C)c2ncc(-c3cccc4ncccc34)nc21 [Compound 48, (R)-1-methyl-3-(1-phenylethyl)-5-(quinolin-5-yl)-1H-imidazo[4,5-b]pyrazin-2(3H)-one] | > 30
C[C@H](c1ccccc1)n1c(=O)[nH]c2ncc(-c3cccc4ncccc34)cc21 [Compound 62, (R)-1-(1-phenylethyl)-6-(quinolin-5-yl)-1H-imidazo[4,5-b]pyridin-2(3H)-one] | > 30
COc1ccc(C(C)C)cc1-c1cnc2[nH]c(=O)n(CC(C)(C)C)c2n1 [Compound 36, 6-(5-isopropyl-2-methoxyphenyl)-1-neopentyl-1H-imidazo[4,5-b]pyrazin-2(3H)-one] | > 30
C[C@@H](c1ccccc1)n1c(=O)[nH]c2ncc(-c3cccc4ccccc34)nc21 [Compound 7, (S)-6-(naphthalen-1-yl)-1-(1-phenylethyl)-1H-imidazo[4,5-b]pyrazin-2(3H)-one] | > 30
COc1ccc(C(C)C)cc1-c1cnc2[nH]c(=O)n(CC(C)C)c2n1 [Compound 21, 1-isobutyl-6-(5-isopropyl-2-methoxyphenyl)-1H-imidazo[4,5-b]pyrazin-2(3H)-one] | > 30
CC(c1ccc(S(C)(=O)=O)cc1)n1c(=O)[nH]c2ncc(-c3cccc4ncccc34)nc21 (stereo not shown) [Compound 66, 1-(1-(4-(methylsulfonyl)phenyl)ethyl)-6-(quinolin-5-yl)-1H-imidazo[4,5-b]pyrazin-2(3H)-one] | > 30
COc1ccc(C(C)C)cc1-c1cnc2[nH]c(=O)n(CC3CC3)c2n1 [Compound 33, 1-(cyclopropylmethyl)-6-(5-isopropyl-2-methoxyphenyl)-1H-imidazo[4,5-b]pyrazin-2(3H)-one] | > 30
COc1ccccc1-c1cnc2[nH]c(=O)n(C(C)C)c2n1 [Compound 38, 1-isopropyl-6-(2-methoxyphenyl)-1H-imidazo[4,5-b]pyrazin-2(3H)-one] | > 30
CC(c1ccccc1)n1c(=O)[nH]c2ncc(-c3ccc(C(F)(F)F)cc3)nc21 (stereo not shown) [Compound 83, 1-(1-phenylethyl)-6-(4-(trifluoromethyl)phenyl)-1H-imidazo[4,5-b]pyrazin-2(3H)-one] | > 30

Further lines, results first:

IC50 [µM] | SMILES
> 30 | C[C@@H](c1ccccc1)n1c(=O)n(C)c2ncc(-c3cccc4ncccc34)nc21 [Compound 49, (S)-1-methyl-3-(1-phenylethyl)-5-(quinolin-5-yl)-1H-imidazo[4,5-b]pyrazin-2(3H)-one]
> 30 | C[C@H](c1ccccc1)n1c(=O)[nH]c2nccnc21 [Compound 16, (R)-1-(1-phenylethyl)-1H-imidazo[4,5-b]pyrazin-2(3H)-one]
20.1 to 30 | O=c1[nH]c2ncc(-c3cccc4ncccc34)nc2n1C1CCC(CO)CC1 (stereo not shown) [Compound 77, 1-((1s,4s)-4-(hydroxymethyl)cyclohexyl)-6-(quinolin-5-yl)-1H-imidazo[4,5-b]pyrazin-2(3H)-one]
20.1 to 30 | CC(c1ccncc1)n1c(=O)[nH]c2ncc(-c3cccc4ncccc34)nc21 (stereo not shown) [Compound 67, 1-(1-(pyridin-4-yl)ethyl)-6-(quinolin-5-yl)-1H-imidazo[4,5-b]pyrazin-2(3H)-one]
> 30 | O=c1[nH]c2ncc(-c3cccc4ncccc34)nc2n1CC1CCNCC1 [Compound 74, 1-(piperidin-4-ylmethyl)-6-(quinolin-5-yl)-1H-imidazo[4,5-b]pyrazin-2(3H)-one]
> 30 | CC(C)[C@H](CO)n1c(=O)[nH]c2ncc(-c3cccc4ncccc34)nc21 [Compound 12, (R)-1-(1-hydroxy-3-methylbutan-2-yl)-6-(quinolin-5-yl)-1H-imidazo[4,5-b]pyrazin-2(3H)-one]
> 30 | CC(c1ccccc1)n1c(=O)[nH]c2ncc(-c3ccc(NS(C)(=O)=O)cc3)nc21 (stereo not shown) [Compound 78, N-(4-(2-oxo-3-(1-phenylethyl)-2,3-dihydro-1H-imidazo[4,5-b]pyrazin-5-yl)phenyl)methanesulfonamide]
> 30 | C[C@H](c1ccccc1)n1c(=O)[nH]c2ncc(-c3cccc4ccccc34)nc21 [Compound 3, (R)-6-(naphthalen-1-yl)-1-(1-phenylethyl)-1H-imidazo[4,5-b]pyrazin-2(3H)-one]
> 30 | O=c1[nH]c2ncc(-c3cccc4ncccc34)nc2[nH]1 [Compound 20, 5-(quinolin-5-yl)-1H-imidazo[4,5-b]pyrazin-2(3H)-one]
0.1 to 5 | CC(c1ccccc1)n1c(=O)[nH]c2ncc(-c3cccc4ncccc34)nc21 (stereo not shown) [Compound 42, 1-(1-phenylethyl)-6-(quinolin-5-yl)-1H-imidazo[4,5-b]pyrazin-2(3H)-one]
> 30 | COc1ccc(C(C)C)cc1-c1cnc2[nH]c(=O)n(CCO)c2n1 [Compound 22, 1-(2-hydroxyethyl)-6-(5-isopropyl-2-methoxyphenyl)-1H-imidazo[4,5-b]pyrazin-2(3H)-one]
> 30 | O=c1[nH]c2ncc(-c3cccc4ncccc34)nc2n1C(c1ccccc1)c1ccccc1 [Compound 43, 1-benzhydryl-6-(quinolin-5-yl)-1H-imidazo[4,5-b]pyrazin-2(3H)-one]
